Reference: US20240140957A1, “BRIDGED COMPOUNDS AS KRAS G12D INHIBITOR AND DEGRADER AND THE USE THEREOF” (BeiGene Switzerland GmbH, priority 2021, published 2024)
pIC50: −log10 of the molar value.

Molecular target: GDP-loaded KRAS G12D (Homo sapiens, UniProt P01116, G12D)
Assay: KRAS G12D Probe Displacement Assay
Format: binding
Details: KRAS G12D 0.5 nM, biotinylated probe 2 4 nM; Table 6 letters; read-out: KRAS G12D Probe Displacement Assay IC50 (class)

Sequence of GDP-loaded KRAS G12D (P01116 1-188 isoform P01116-2 G12D): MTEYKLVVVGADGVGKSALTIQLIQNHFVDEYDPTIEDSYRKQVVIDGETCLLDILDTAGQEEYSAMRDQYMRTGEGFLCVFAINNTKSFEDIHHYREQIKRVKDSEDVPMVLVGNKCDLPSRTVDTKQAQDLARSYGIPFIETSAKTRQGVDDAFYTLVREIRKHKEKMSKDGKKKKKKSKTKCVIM

Compound | pIC50
Nc1nc2c(-c3c(C(F)(F)F)cc4c(N5CC6CCC(C5)N6)nc(OCC5CCOC5)nc4c3F)ccc(F)c2s1 (stereo not shown) [Example E145, 4-(4-(3,8-diazabicyclo[3.2.1]octan-3-yl)-8-fluoro-2-((tetrahydrofuran-3-yl)methoxy)-6-(trifluoromethyl)quinazolin-7-yl)-7-fluorobenzo [d]thiazol-2-amine] | > 7.30
Nc1nc2c(-c3c(C(F)(F)F)cc4c(N5CC6CCC(C5)N6)nc(OCC5CCCCO5)nc4c3F)ccc(F)c2s1 (stereo not shown) [Example E146, 4-(4-(3,8-diazabicyclo[3.2.1]octan-3-yl)-8-fluoro-2-((tetrahydro-2H-pyran-2-yl)methoxy)-6-(trifluoromethyl)quinazolin-7-yl)-7-fluorobenzo[d]thiazol-2-amine] | > 7.30
N#CC1(COc2nc(N3CC4CCC(C3)N4)c3cc(C(F)(F)F)c(-c4ccc(F)c5sc(N)nc45)c(F)c3n2)CC1 [Example E147, 1-(((7-(2-amino-7-fluorobenzo[d]thiazol-4-yl)-4-(3,8-diazabicyclo [3.2.1]octan-3-yl)-8-fluoro-6-(trifluoromethyl)quinazolin-2-yl)oxy)methyl)cyclopropane-1-carbonitrile] | > 7.30
Nc1nc2c(-c3c(C(F)(F)F)cc4c(N5CC6CCC(C5)N6)nc(OC5CS(=O)(=O)C5)nc4c3F)ccc(F)c2s1 [Example E148, 3-((7-(2-amino-7-fluorobenzo[d]thiazol-4-yl)-4-(3,8-diazabicyclo [3.2.1]octan-3-yl)-8-fluoro-6-(trifluoromethyl)quinazolin-2-yl)oxy)thietane 1,1-dioxide] | > 7.30
Nc1nc2c(-c3c(C(F)(F)F)cc4c(N5CC6CCC(C5)N6)nc(OCC5(CO)CC5)nc4c3F)ccc(F)c2s1 [Example E149, (1-(((7-(2-amino-7-fluorobenzo[d]thiazol-4-yl)-4-(3,8-diazabicyclo[3.2.1]octan-3-yl)-8-fluoro-6-(trifluoromethyl)quinazolin-2-yl)oxy)methyl)cyclopropyl) methanol] | > 7.30
COC1CC(COc2nc(N3CC4CCC(C3)N4)c3cc(C(F)(F)F)c(-c4ccc(F)c5sc(N)nc45)c(F)c3n2)C1 (stereo not shown) [Example E150, 4-(4-(3,8-diazabicyclo[3.2.1]octan-3-yl)-8-fluoro-2-((3-methoxycyclobutyl)methoxy)-6-(trifluoromethyl)quinazolin-7-yl)-7-fluorobenzo[d]thiazol-2-amine] | > 7.30
N#CC1(F)CC(Oc2nc(N3CC4CCC(C3)N4)c3cc(C(F)(F)F)c(-c4ccc(F)c5sc(N)nc45)c(F)c3n2)C1 (stereo not shown) [Example E151, 3-((7-(2-amino-7-fluorobenzo[d]thiazol-4-yl)-4-(3,8-diazabicyclo[3.2.1]octan-3-yl)-8-fluoro-6-(trifluoromethyl)quinazolin-2-yl)oxy)-1-fluorocyclo butane-1-carbonitrile] | > 7.30
Nc1nc2c(-c3c(C(F)(F)F)cc4c(N5CC6CCC(C5)N6)nc(OCC56COC(C5)C6)nc4c3F)ccc(F)c2s1 [Example E152, 4-(2-((2-oxabicyclo[2.1.1]hexan-4-yl)methoxy)-4-(3,8-diazabicyclo[3.2.1]octan-3-yl)-8-fluoro-6-(trifluoromethyl)quinazolin-7-yl)-7-fluorobenzo[d] thiazol-2-amine] | > 7.30
Nc1nc2c(-c3c(C(F)(F)F)cc4c(N5CC6CCC(C5)N6)nc(OCC(F)(F)CO)nc4c3F)ccc(F)c2s1 [Example E153, 3-((7-(2-amino-7-fluorobenzo[d]thiazol-4-yl)-4-(3,8-diazabicyclo [3.2.1]octan-3-yl)-8-fluoro-6-(trifluoromethyl)quinazolin-2-yl)oxy)-2,2-difluoropropan-1-ol] | > 7.30
Nc1nc2c(-c3c(C(F)(F)F)cc4c(N5CC6CCC(C5)N6)nc(OCC5(CO)CCC5)nc4c3F)ccc(F)c2s1 [Example E154, (1-(((7-(2-amino-7-fluorobenzo[d]thiazol-4-yl)-4-(3,8-diazabicyclo[3.2.1]octan-3-yl)-8-fluoro-6-(trifluoromethyl)quinazolin-2-yl)oxy)methyl)cyclobutyl) methanol] | > 7.30
N#CC1(CCOc2nc(N3CC4CCC(C3)N4)c3cc(C(F)(F)F)c(-c4ccc(F)c5sc(N)nc45)c(F)c3n2)CC1 [Example E155] | > 7.30
COC1(COc2nc(N3CC4CCC(C3)N4)c3cc(C(F)(F)F)c(-c4ccc(F)c5sc(N)nc45)c(F)c3n2)CC1 [Example E156] | > 7.30
N#CC1(COc2nc(N3CC4CCC(C3)N4)c3cc(C(F)(F)F)c(-c4ccc(F)c5sc(N)nc45)c(F)c3n2)CCCCC1 [Example E157, 1-(((7-(2-amino-7-fluorobenzo[d]thiazol-4-yl)-4-(3,8-diazabicyclo [3.2.1]octan-3-yl)-8-fluoro-6-(trifluoromethyl)quinazolin-2-yl)oxy)methyl)cyclohexane-1-carbonitrile] | > 7.30
Nc1nc2c(-c3c(C(F)(F)F)cc4c(N5CC6CCC(C5)N6)nc(OCC5(CO)CC(F)C5)nc4c3F)ccc(F)c2s1 (stereo not shown) [Example E158, (1-(((7-(2-amino-7-fluorobenzo[d]thiazol-4-yl)-4-(3,8-diazabicyclo[3.2.1]octan-3-yl)-8-fluoro-6-(trifluoromethyl)quinazolin-2-yl)oxy)methyl)-3-fluorocyclobutyl)methanol] | > 7.30
Nc1nc2c(-c3c(C(F)(F)F)cc4c(N5CC6CCC(C5)N6)nc(OC5CCOCC5F)nc4c3F)ccc(F)c2s1 (stereo not shown) [Example E159, 4-(4-(3,8-diazabicyclo[3.2.1]octan-3-yl)-8-fluoro-2-((3-fluorotetra hydro-2H-pyran-4-yl)oxy)-6-(trifluoromethyl)quinazolin-7-yl)-7-fluorobenzo[d]thiazol-2-amine] | > 7.30
Nc1nc2c(-c3c(C(F)(F)F)cc4c(N5CC6CCC(C5)N6)nc(OC5CCS(=O)(=O)CC5)nc4c3F)ccc(F)c2s1 [Example E160] | > 7.30
Nc1nc2c(-c3c(C(F)(F)F)cc4c(N5CC6CCC(C5)N6)nc(OCCCC5COC5)nc4c3F)ccc(F)c2s1 [Example E161] | > 7.30
Nc1nc2c(-c3c(C(F)(F)F)cc4c(N5CC6CCC(C5)N6)nc(OCC56CC(CO)(C5)C6)nc4c3F)ccc(F)c2s1 [Example E162, (3-(((7-(2-amino-7-fluorobenzo[d]thiazol-4-yl)-4-(3,8-diazabicyclo[3.2.1]octan-3-yl)-8-fluoro-6-(trifluoromethyl)quinazolin-2-yl)oxy)methyl)bicyclo[1.1.1]pentan-1-yl)methanol] | > 7.30
Nc1nc2c(-c3c(C(F)(F)F)cc4c(N5CC6CCC(C5)N6)nc(OCC5CC6CCC(C5)O6)nc4c3F)ccc(F)c2s1 (stereo not shown) [Example E163, 4-(2-((8-oxabicyclo[3.2.1]octan-3-yl)methoxy)-4-(3,8-diazabicyclo[3.2.1]octan-3-yl)-8-fluoro-6-(trifluoromethyl)quinazolin-7-yl)-7-fluorobenzo[d]thiazol-2-amine] | > 7.30
CC(=O)N1CC(COc2nc(N3CC4CCC(C3)N4)c3cc(C(F)(F)F)c(-c4ccc(F)c5sc(N)nc45)c(F)c3n2)C1 [Example E164, 1-(3-(((7-(2-amino-7-fluorobenzo[d]thiazol-4-yl)-4-(3,8-diazabicyclo[3.2.1]octan-3-yl)-8-fluoro-6-(trifluoromethyl)quinazolin-2-yl)oxy)methyl)azetidin-1-yl)ethan-1-one] | > 7.30
Nc1nc2c(-c3c(C(F)(F)F)cc4c(N5CC6CCC(C5)N6)nc(OCC56CCC(CC5)OC6)nc4c3F)ccc(F)c2s1 [Example E165, 4-(2-((2-oxabicyclo[2.2.2]octan-4-yl)methoxy)-4-(3,8-diazabicyclo[3.2.1]octan-3-yl)-8-fluoro-6-(trifluoromethyl)quinazolin-7-yl)-7-fluorobenzo[d]thiazol-2-amine] | > 7.30
CC1(COc2nc(N3CC4CCC(C3)N4)c3cc(C(F)(F)F)c(-c4ccc(F)c5sc(N)nc45)c(F)c3n2)CCO1 (stereo not shown) [Example E166, 4-(4-(3,8-diazabicyclo[3.2.1]octan-3-yl)-8-fluoro-2-((2-methyloxetan-2-yl)methoxy)-6-(trifluoromethyl)quinazolin-7-yl)-7-fluorobenzo[d]thiazol-2-amine] | > 7.30
COC1CC(Oc2nc(N3CC4CCC(C3)N4)c3cc(C(F)(F)F)c(-c4ccc(F)c5sc(N)nc45)c(F)c3n2)C1 (stereo not shown) [Example E167, 4-(4-(3,8-diazabicyclo[3.2.1]octan-3-yl)-8-fluoro-2-(3-methoxycyclobutoxy)-6-(trifluoromethyl)quinazolin-7-yl)-7-fluorobenzo[d]thiazol-2-amine] | 7.00 to 7.30
CO[C@@H]1CC[C@H]1COc1nc(N2CC3CCC(C2)N3)c2cc(C(F)(F)F)c(-c3ccc(F)c4sc(N)nc34)c(F)c2n1 [Example E168, 4-(4-(3,8-diazabicyclo[3.2.1]octan-3-yl)-8-fluoro-2-(((1S,2R)-2-methoxycyclobutyl)methoxy)-6-(trifluoromethyl)quinazolin-7-yl)-7-fluorobenzo[d]thiazol-2-amine] | > 7.30
COCC(CO)(COc1nc(N2CC3CCC(C2)N3)c2cc(C(F)(F)F)c(-c3ccc(F)c4sc(N)nc34)c(F)c2n1)OC (stereo not shown) [Example E169, 3-((7-(2-amino-7-fluorobenzo[d]thiazol-4-yl)-4-(3,8-diazabicyclo [3.2.1]octan-3-yl)-8-fluoro-6-(trifluoromethyl)quinazolin-2-yl)oxy)-2-methoxy-2-(methoxymethyl)propan-1-ol] | > 7.30
Nc1nc2c(-c3c(C(F)(F)F)cc4c(N5CC6CCC(C5)N6)nc(OCC5COC(=O)N5)nc4c3F)ccc(F)c2s1 (stereo not shown) [Example E170, 4-(((7-(2-amino-7-fluorobenzo[d]thiazol-4-yl)-4-(3,8-diazabicyclo [3.2.1]octan-3-yl)-8-fluoro-6-(trifluoromethyl)quinazolin-2-yl)oxy)methyl)oxazolidin-2-one] | > 7.30
Nc1nc2c(-c3c(C(F)(F)F)cc4c(N5CC6CCC(C5)N6)nc(OCC5CS(=O)(=O)C5)nc4c3F)ccc(F)c2s1 [Example E171] | > 7.30
Nc1nc2c(-c3c(C(F)(F)F)cc4c(N5CC6CCC(C5)N6)nc(OCCC5(CCO)COC5)nc4c3F)ccc(F)c2s1 [Example E172, 2-(3-(2-((7-(2-amino-7-fluorobenzo[d]thiazol-4-yl)-4-(3,8-diazabicyclo[3.2.1]octan-3-yl)-8-fluoro-6-(trifluoromethyl)quinazolin-2-yl)oxy)ethyl)oxetan-3-yl) ethan-1-ol] | > 7.30
